# In patent US9688634B2, “Pest control agent” (priority 2012, dated 2017):
# Key:
# brown rice planthopper = test: whole plant or invertebrate; type: in vivo; conditions: Oryza sativa, 120 h, immersion treatment of rice seedlings, second- to third-instar nymphs, 5 days after release, 25° C.
# [1] = tested on: Haemaphysalis longicornis; test: Test for Examining Effect on Haemaphysalis longicornis (Test Example 3); type: in vivo; conditions: treated plastic vial, young mites, 24 hours after contact, 25° C., dark
# Experimental: Test for Examining Effect on Haemaphysalis longicornis
# A solution prepared so that the concentration of each Invention Compound therein was 100 ppm was used to treat a plastic vial. After the liquid chemical was air-dried, young mites were placed in the vial. This vial was allowed to stand under constant dark conditions at 25° C. and a relative humidity of 80-100%. At 24 hours after the contact with the chemical, the number of dead mites was recorded. The mortality (%) was determined using the following calculation formula. […] Mortality (%)=((number of dead ticks)/(number of all ticks))×100
smiles,measurement,setting,value
"COc1cnccc1C#Cc1ccc(C(C)(C)C)cc1 [Compound No. 21, 4-((4-(tert-butyl)phenyl)ethynyl)-3-methoxypyridine]",mortality at 200 ppm,brown rice planthopper,≥ 90%
"CCCNc1cnccc1C#Cc1ccc(C(C)(C)C)cc1 [Compound No. 32, 4-((4-(tert-butyl)phenyl)ethynyl)-N-propylpyridine-3-amine]",mortality at 200 ppm,brown rice planthopper,≥ 90%
"CCNc1cnccc1C#Cc1ccc(C(C)(C)C)cc1 [Compound No. 112, 4-((4-tert-butylphenyl)ethynyl)-N-ethylpyridine-3-amine]",mortality at 200 ppm,brown rice planthopper,≥ 90%
"CSc1cnccc1C#Cc1ccc(C(C)(C)C)cc1 [Compound No. 26, 4-((4-(tert-butyl)phenyl)ethynyl)-3-(methylthio)pyridine]",mortality at 200 ppm,brown rice planthopper,≥ 90%
"CC(C)(C)c1ccc(C#Cc2ccncc2Br)cc1 [Compound No. 10, 3-bromo-4-((4-(tert-butyl)phenyl)ethynyl)pyridine]",mortality at 200 ppm,brown rice planthopper,≥ 90%
"CC(C)(C)c1ccc(C#Cc2ccncc2N)cc1 [Compound No. 30, 4-((4-(tert-butyl)phenyl)ethynyl)pyridine-3-amine]",mortality at 200 ppm,brown rice planthopper,≥ 90%
"C=CCc1cnccc1C#Cc1ccc(C(C)(C)C)cc1 [Compound No. 17, 3-allyl-4-((4-tert-butylphenyl)ethynyl)pyridine]",mortality at 100 ppm,[1],≥ 90%
same,mortality at 200 ppm,brown rice planthopper,≥ 90%
